Results: patent US12516019B2, “Amphoteric compounds” (Eastman Chemical Company, priority 2015, dated 2026)

Legend:
Format in all cases: physicochemical
[1] = Water solubility: heated to a clear solution, cooled to ambient temperature; settings: ambient temperature after heating to a clear solution
Experimental: To a vial was added 5.00 g of 3-((lauryloxycarbonylpropyl)-dimethylammonio)propanesulfonate and 10.00 g of water. The mixture was heated to 100° C. for an hour to afford a clear solution. The mixture was then allowed to cool to ambient temperature, at which point it was still homogeneous with no precipitate or gel.
To a vial was added 5.00 g of 3-((lauryloxycarbonylmethyl)-dimethylammonio)propanesulfonate and 45.00 g of water. The mixture was heated to 100° C. for an hour to afford a clear solution. The mixture was then allowed to cool to ambient temperature resulting in a white solid. The solid was recovered by filtration and dried in a vacuum oven at 55° C. in vacuo with a nitrogen sweep overnight to afford 4.58 g of 3-((lauryloxycarbonylmethyl)-dimethylammonio)propanesulfonate.
To a vial was added 10.00 g of 3-((4-laurylamino-4-oxobutyl)-dimethylammonio)propanesulfonate and 20.00 g of water. The mixture was heated to 100° C. for an hour to afford a clear solution. The mixture was then allowed to cool to ambient temperature, at which point it was still homogeneous with no precipitate or gel.
The solubility of 3-((2-laurylamino-2-oxoethyl)dimethylammonio)-propanesulfonate was determined by mixing 5.00 g of material with 45.00 g of water and heating to 85° C. for 1 h to afford a clear 10 wt % solution. The material was allowed to cool to ambient temperature to afford a precipitate. The precipitate was filtered, and the resulting solid was dried in vacuo at 50° C. with a nitrogen sweep for 3 days to afford 4.54 g of recovered 3-((2-laurylamino-2-oxoethyl)dimethylammonio)propanesulfonate.

[2] = Foam height test, Standard Test Method for Foaming Properties of Surface-Active Agents (ASTM 1173-07); settings: 49° C.; for Foam height at time t = 0: t = 0 min; for Foam height at time t = 1: t = 1 min; for Foam height at time t = 2: t = 2 min; for Foam height at time t = 3: t = 3 min; for Foam height at time t = 4: t = 4 min; for Foam height at time t = 5: t = 5 min
Description: The Standard Test Method for Foaming Properties of Surface-Active Agents (ASTM 1173-07) for 0.1 wt % and 1.0 wt % was used to determine the foaming properties of the amphoteric compounds of the formula 1 described herein. This method generates foam under low-agitation conditions and is generally used for moderate- and high-foam surfactants. This test gathers data on initial foam height and foam decay. Foam decay provides information on foam stability.
The apparatus for carrying out this test includes a jacketed column and a pipet. The jacketed column serves as a receiver, while the pipet delivers the surface-active solution.
Solutions of each surface-active agent to be measured were prepared in borosilicate glass jars a day ahead of time, using ambient temperature ingredients, and were slowly rolled overnight to homogenize. The solutions were then removed from the rollers and equilibrated in a constant temperature bath (49° C.+/−1° C.) for at least 1 hour before measurement. The solution of the amphoteric compound to be tested was added to the receiver (50 mL) and to the pipet (200 mL). The pipet was positioned above the receiver and opened. As the solution fell and made contact with the solution in the receiver, foam was generated. When the pipet was empty, the time was noted and an initial foam height was recorded. The foam height was recorded each minute for five minutes. Exact size specifications for the glassware can be found in ASTM 1173-07. The foam height results for each amphoteric compound 1 and representative standards are listed below in Tables 1 (0.1% concentration) and 2 (1% concentration).

[3] = Critical micelle concentration from surface tension (Wilhelmy plate, K100C Tensiometer); settings: deionized water, ambient temperature
Experimental: The critical micelle concentration (CMC) is an important characteristic of a surfactant, and the CMC values were determined for the amphoteric compounds of formula 1. The CMC is defined as the concentration at which micelle formation first begins, and for surface tension determination of CMC, is typically assigned as the concentration of the intersection of two straight lines through the data, where the first line is the linear portion of the initial decline in surface tension with increasing surfactant concentration, and the second is the line of constant surface tension.
The critical micelle concentration was determined from plots of surface tension as a function of the logarithm of active surfactant concentration. Surface tension was measured via the Wilhelmy plate technique. In this method, the downward force of a rigorously clean plate probe that just contacts the liquid surface of the test sample is measured, and the surface tension is calculated from knowledge of the contact angle the liquid makes with the probe surface and the length of the probe plate.
A K100C Tensiometer (Kruss GmbH) was used to measure surface tension of solutions in a glass sample vessel. All measurements were made under ambient temperature conditions.
The tensiometer was equipped with a computer-controlled microdispensing and aspirating system to automate surfactant concentration adjustments of the test solution while maintaining constant solution volume between successive measurements. A roughened platinum plate probe was used. Cleanliness of probe, sample vessel, and microdispensing system was verified after cleaning between samples by measuring the surface tension of pure deionized water run through the system as a control.
100 mL of the 1 mg/L surfactant solution was added to the clean sample vessel and placed in the instrument. The plate probe was rinsed with deionized water and flame treated to combust off residual organic impurities, then mounted in position in the tensiometer. The experiment was initiated and run through the LabDesk version 3.2.2 (Kruss GmbH) software.
The surface tension measurements were run sequentially (and automatically) from most dilute to most concentrated by incrementally injecting known volume aliquots of the 10,000 mg/L surfactant solution into the sample, homogenizing the sample after injection by stirring for 30 seconds via a magnetic stir bar in the solution, and then aspirating out equal volume that was added to the sample vessel to keep the total sample volume constant for each measurement.
The sample vessel was then automatically moved into measurement position, and the surface tension measurement was made and recorded. This sequence was repeated until all concentrations had been measured.
The active surfactant concentration range spanned from 1 mg/L to 5000 mg/L over 50 concentration increments, equally spaced on a logarithmic scale over the full range of concentrations measured.
The sample at each concentration was measured 10 times, and the average of the 10 measures was plotted against the logarithm of the surfactant concentration.
After completing the full range of concentrations, the software provided best-fit lines to estimate CMC, and these regression lines were manually adjusted as needed to give the broadest range of linear behavior for each line.

SMILES: CCCCCCCCCCCCNC(=O)CCC[N+](C)(C)CCCS(=O)(=O)[O-] [Example 14, 3-((4-Laurylamino-4-oxobutyl)dimethylammonio)-propanesulfonate]
- solubility in water [1]: greater than or equal to 33 wt %
- Foam height at time t = 0 ([2]; 1 g/L (0.1 weight %)): 143 mm
- Foam height at time t = 1 ([2]; 1 g/L (0.1 weight %)): 133 mm
- Foam height at time t = 2 ([2]; 1 g/L (0.1 weight %)): 123 mm
- Foam height at time t = 3 ([2]; 1 g/L (0.1 weight %)): 108 mm
- Foam height at time t = 4 ([2]; 1 g/L (0.1 weight %)): 95 mm
- Foam height at time t = 5 ([2]; 1 g/L (0.1 weight %)): 75 mm
- Foam height at time t = 0 ([2]; 10 g/L (1.0 weight %)): 157 mm
- Foam height at time t = 1 ([2]; 10 g/L (1.0 weight %)): 145 mm
- Foam height at time t = 2 ([2]; 10 g/L (1.0 weight %)): 137 mm
- Foam height at time t = 3 ([2]; 10 g/L (1.0 weight %)): 129 mm
- Foam height at time t = 4 ([2]; 10 g/L (1.0 weight %)): 122 mm
- Foam height at time t = 5 ([2]; 10 g/L (1.0 weight %)): 116 mm
- Critical micelle concentration (CMC) [3]: 133.9 mg/L
